How the values were obtained:
[1] = test system: human psoriatic skin transplants; assay: Topical treatment of human psoriatic skin transplanted to nude mice (epidermal thickness / acanthosis); format: in vivo, human skin on outbred Balb/C nude mice
Description: Human psoriatic skin from psoriatic patients was transplanted to nude mice essentially according to the method of G. Kreuger et al., Prog. in Dermatol. […] The donors had stable plaque type psoriasis for at least one year preceding biopsy and had not received systemic anti-psoriatic therapy for the 4 weeks preceding biopsy. They had also not received topical therapy or U.V. therapy for the two weeks preceding biopsy. […] In this method the area (A) of the psoriasis in four main body parts (head (H), trunk (T), upper extremities (U) and lower extremities (L)) is assigned a value from 0-6 depending on the extent of psoriasis where O reflects no involvement and 6 reflects 90-100% involvement. The severity of the lesion is assessed based on three parameters: Erythema (E), Desquamation (scaling) (D) and Infiltration (I). The severity of each of these parameters is measured on a scale of 0-4 where 0 is no involvement and 4 is very sever. The total severity score is calculated according to the following formula: […]
Split thickness biopsies of nonpustular psoriatic human tissue, 4×5 cm and 0.4 mm thick were obtained from the edge of established plaques from various donor patients. […] The grafts were allowed to heal for one week prior to topical application of the test preparations.
Outbred Balb/C nude mice, 2 to 3 months of age were used in this study. The mice were obtained from the pathogen free animal breeding facility at the University of Tel Aviv (Israel) and were raised in the pathogen-free animal facility at the Faculty of Medicine, Technion-Israel Institute of Technology, Haifa, Israel.
On the day following the end of treatment the severity of the psoriatic lesion was assessed and then the animals were sacrificed and the entire graft was excised and divided into two equal sections. One section was used to assess changes in the rate of proliferation by autoradiography (tritiated thymidine incorporation) while the other section was sectioned for microscopic histological assessment, including acanthosis and parakeratosis.
In another series of experiments, human psoriatic skin of various severities was transplanted on each of 28 nude mice. The graft area was treated with various preparations as described above.
The treatments were applied as creams and were administered as described above.

[2] = test system: human psoriatic fibroblasts; assay: Inhibition of human psoriatic fibroblast proliferation; format: cell-based; settings: Homo sapiens, Fibroblast
Protocol: PTX and PPF, alone as well as PTX in combination with other drugs were tested.
Human psoriatic fibroblasts were obtained from skin biopsies of 5 individuals with plaque psoriasis. Cells in the 3-7th passages were used for the experiments. Human psoriatic fibroblasts (4×10^3 -6×10^3 cells) were added in 24-well plates and cultured in Dulbecco's Modified Eagle's Medium (DMEM) supplemented with 10% fetal calf serum, 2 mM L-glutamine, 100 u/ml penicillin, 100 μg/ml streptomycin (DMEM+) at 5% CO2 and 95% humidity at 37° C.
After 3 days, medium was replaced with fresh DMEM+(control) or with medium containing various concentrations of compounds alone or in combination with pentoxifylline and incubation was continued for additional 3 days. Stock solutions (10^-1 -10^-2 M) of the compounds tested were made in ethanol. For these compounds special control (DMEM+ with 1% ethanol) was made. The compounds tested together with pentoxifylline were 3-heptanone, 3,3-dimethylbutyric acid, lipoic acid, 1,25-dihydroxyvitamin D3 betamethasone dipropionate and hydrocortisone-17-butyrate.
On the last day of experiments, the medium was aspirated and the cells were obtained by trypsinization. The number of cells in each well was counted by the use of an hemocytometer.
The percentage of inhibition of fibroblast proliferation was calculated according to the formula: [formula] and the results are shown in Tables 3 and 4.

[3] = test system: human peripheral blood mononuclear cells (lymphocytes); assay: Inhibition of the mitogenic (PHA) stimulation of human lymphocytes (PBMC), [3H]thymidine; format: cell-based
Protocol: Buffy coats from the Beilinson Medical Center Blood Bank or 20 mL samples of heparinized venous blood from healthy or atopic donors were used as a source for human peripheral blood mononuclear (PBM) cells. PBM cells were separated by Ficoll-Hypaque density gradient centrifugation. […] The nonadhering cells were stirred gently and carefully collected.
PHA (1 μg/mL), indomethacin (5 μg/mL) and various xanthine derivatives were added at initiation of culture. Indomethacin was dissolved in ethanol. […] [methyl-^3 H]Thymidine (1 μCi/well) was added at 68 h, and the cells were harvested 4 h later using an automated cell harvester (Dynatech, Alexandria, Va.). Unless otherwise stated, all cultures were performed in triplicate.

psoriasis lesions = assay: Clinical trial in psoriasis, 2% pentoxifylline cream vs placebo, right-left comparison, PASI; format: in vivo, human patients; settings: for decrease in PASI: 2% cream twice daily
Protocol: A clinical trial was performed comparing a cream composition of 2% pentoxifylline (formulation A of Example 1) to placebo. The trial was randomized, double blind, placebo controlled, right-left comparison within patient design.
Two similar plaque areas of psoriasis (i.e. both legs or forearms), were selected for treatment in each patient. In each patient one area on one side of the body was treated with 2% pentoxifylline formulated as in Example 1 and the other area on the other side of the body was treated with placebo cream formulated identically but without the pentoxifylline. The cream (formulation A in Example 1) was applied by the patient twice daily.
Patients stopped all forms of topical psoriatic treatment two weeks before entry into the study.
Systemic psoriatic treatments and phototherapy were stopped one month before entry into the study.
The dermatological assessment was performed as follows. The dermatologist measured the area of the lesion in cm^2. The severity of each lesion was evaluated by grading erythema, scaling and thickness on a 0-4 scale where 0=none, 1=slight, 2=moderate, 3=severe and 4=exceptionally severe.
Based on these measurements the Psoriasis Area Severity Index (PASI) was calculated for each of the 2 lesions on each patient as follows:
PASI=Area x (Erythema+Thickness+Scaling)

atopic dermatitis = assay: Clinical trial in atopic dermatitis, 2% pentoxifylline cream vs vehicle, bilateral comparison; format: in vivo, human patients; settings: 2% cream twice a day, four weeks, seven patients aged 3-10 years
Protocol: A randomized double blind, vehicle controlled, bilateral comparison study was performed, to determine the effect of pentoxifylline (PTX) in the treatment of atopic dermatitis. The study medication contained 2% pentoxifylline in an oil-in-water cream vehicle, and the control treatment consisted of the same vehicle without the pentoxifylline. The exact formulations appear in Table 7.
Seven patients (aged 3-10 years) were enrolled in the trial and evaluated for pruritus, erythema, dryness/scaling and exudate. Pentoxifylline cream, or the placebo (the identical cream, but without the pentoxifylline) were dispensed in identical tubes that were marked for application to right and left sides. Patients were instructed to apply medication twice a day (morning and evening) for four weeks.

## CC(=O)CCCCn1c(=O)c2c(ncn2C)n(C)c1=O [Pentoxifylline, 3,7-dimethyl-1-(5-oxohexyl)-xanthine]
[1]; 2% PTX cream, 7 days, donor patient 3 (PASI 7.6)
  % Improvement (Decrease in Thickness): 40%
[1]; 2% PTX cream, 7 days, donor patient 4 (PASI 17.6)
  % Improvement (Decrease in Thickness): 22%
[1]; 2% PTX cream, 7 days, donor patient 6 (PASI 3.8), placebo 0
  % Improvement (Decrease in Thickness): 30%
[1]; 2% PTX cream, 7 days, placebo 5%
  Average Improvement (decrease in epidermal thickness): 31%
[1]; 2% PTX cream, donor patient 3 (PASI 7.6), before treatment 46 μm
  Epidermal Thickness (Acanthosis) after 7 days treatment: 28 μm
[1]; 2% PTX cream, donor patient 4 (PASI 17.6), before treatment 54 μm
  Epidermal Thickness (Acanthosis) after 7 days treatment: 42 μm
[1]; 2% PTX cream, donor patient 6 (PASI 3.8), before treatment 55 μm
  Epidermal Thickness (Acanthosis) after 7 days treatment: 39 μm
[1]; 2% pentoxifylline cream (Example 1A), 7 days topical, placebo 0/6
  SUCCESS RATIO (decrease of at least 15% in epidermal thickness): 6/10
[1]; experiment of Table 1, transplanted skin
  effectiveness in treating psoriasis (in words): almost as effective as steroids in treating psoriasis and far more effective than dyphylline
[1]; experiment of Table 2, 28 nude mice
  effectiveness in treating psoriasis (in words): almost as effective as topical steroids in treating psoriasis and far more effective than dyphylline
[1]; summary of the animal model experiments
  effectiveness in the treatment of psoriasis (in words): effective in the treatment of psoriasis
[2]; PTX alone, 10^-3 M, Table 3
  inhibition at 1000 µM: 16.9%
[2]; compound alone, 10^-4 M, Table 4
  inhibition at 100 µM: 5.9%
[3]; Homo sapiens, Lymphocyte, 1 × 10^-3 M, lymphocytes from healthy volunteers, read-out: net inhibitory effect on the mitogenic stimulation of human lymphocytes
  inhibition at 1000 µM: 70%
[3]; Homo sapiens, Lymphocyte, 3 × 10^-4 M, lymphocytes from healthy volunteers, read-out: net inhibitory effect on the mitogenic stimulation of human lymphocytes
  inhibition at 300 µM: 46%
[3]; vs theophylline and diphylline, healthy volunteers
  inhibition of the mitogenic stimulation compared with the other xanthine derivatives (in words): inhibited the mitogenic stimulation to a far greater effect than the other xanthine derivatives
Psoriasis lesions; Patient 1, 1.5 weeks, placebo side 0%
  decrease in PASI: 58%
Psoriasis lesions; Patient 2, 2 weeks, placebo side 34%
  decrease in PASI: 53%
Psoriasis lesions; Patient 3, 2 weeks, placebo side 45%
  decrease in PASI: 73%
Psoriasis lesions; Patient 3, 6 weeks, placebo side 56%
  decrease in PASI: 90%
Psoriasis lesions; Patient 4, 6 weeks, placebo side 73%
  decrease in PASI: 91%
Psoriasis lesions; Patient 4, 8 weeks, placebo side 57%
  decrease in PASI: 88%
Psoriasis lesions; Patient 5, 2 weeks, placebo side 25%
  decrease in PASI: 73%
Psoriasis lesions; topical, summary of clinical trials
  effectiveness in the treatment of psoriatic lesions (in words): very effective therapeutic for the treatment of psoriatic lesions
Atopic dermatitis
  improvement of pruritus, erythema, dryness/scaling and exudate (in words): significantly improved each of the four symptoms evaluated

Reference: patent US5565462A, “Composition for topical treatment of psoriasis and atopic dermatitis comprising a xanthine derivative” (Teva Pharmaceutical Industries, Ltd., priority 1991, dated 1996)
